Test results: paper PMC10960464, “In vivo antimalarial effect of 1-hydroxy-5,6,7-trimethoxyxanthone isolated from Mammea siamensis T. Anders. flowers: pharmacokinetic and acute toxicity studies” (BMC Complementary Medicine and Therapies, 2024)
Several values for one entry are separate records, joined by “and”; a condition that tells them apart may be missing. Equal values may be shown once. Entries after “also recorded” stand apart in the source; their conditions may differ. Read-outs that look alike come from different tables or passages of the source.

Assays:
[1] = test system: Plasmodium berghei ANKA strain; assay: In vivo 4-day suppressive test of P. berghei in ICR mice; design: species or system Plasmodium berghei (in ICR mice); details: mean ± SEM, n = 5
Method: Wild-type P. berghei ANKA strain was obtained from Thomas F. McCutchan (BEI Resources, NIAID, NIH). P. berghei-infected red blood cells were administered intraperitoneally to donor mice. When parasitemia levels reached 20–30%, blood was collected from the heart using a cardiac puncture procedure and placed in a vacutainer heparinized tube for injection into experimental animals.
A 4-day suppressive test was used to measure the schizonticidal activity of HTX in P. berghei-infected ICR mice. This test was performed according to a previous method, with some modifications. All mice were intraperitoneally injected with 1 × 10^7P. berghei ANKA-parasitized erythrocytes. Treatment was initiated four hours after the mice were infected with Plasmodium parasite on the first day (D0). […] For each experimental group, animals received daily intraperitoneal doses of 1, 3, or 10 mg/kg body weight of HTX. Mice received each substance daily for 4 days (D0-D3). On the fifth day (D4), parasitemia was determined using Giemsa-stained thin blood smears prepared from the tails of each mouse. Mice were euthanized at the end of the experiment by intraperitoneal injection of pentobarbital (200 mg/kg body weight).
Finally, the percentage suppression of parasite growth was calculated using the following equation: [drawing 1]

[2] = cited from earlier work
[3] = In vivo pharmacokinetic study after intraperitoneal administration, plasma LC-MS/MS; details: 5 mg/kg intraperitoneal, ICR mice, n = 5
Method: A pharmacokinetic study was conducted in non-infected ICR mice aged 6–8 weeks and weighing 25–35 g. Male ICR mice were randomly divided into two groups, each consisting of five mice. The first group is a negative control group and was injected with 150 µL of 2% DMSO in NSS, whereas the second group is a test group that was administered 5 mg/kg body weight of HTX compound intraperitoneally. Blood ([…]) was taken from the tail vein prior to administration of test compounds (0 h) and after at, 0.5, 1, 2, 3, 5, 8, 24, 48, and 72 h. Blood samples were collected in microtubes containing ethylenediaminetetraacetic acid (EDTA) and kept on ice until they were centrifuged at 3,000 × g for 10 min at 4 °C to allow the collection of plasma, which was stored at − 80 °C.
LC-MS/MS (Agilent 1290 infinity LC and Agilent 6490 triple quadrupole mass spectrometer) with an electrospray ionization (ESI, Agilent Technologies, USA) source was used to detect HTX in the plasma. Using a VertiSepTM USP C18 column (4.6 mm × 150 mm, particle size = 5 μm; Vertical Chromatography Co., ltd., Nonthaburi, Thailand), the separation was achieved. Acetonitrile:1 mM formic acid (7:3) was used as the mobile phase and was maintained at a constant flow rate of 0.5 mL/min. The injection volume was 1 µL, and column temperature was maintained at 30 °C. The following operating conditions for the MS were optimized: the source temperature was kept at 200 °C, the ion spray voltage for the positive mode was set at 3 KV, and the collision energy for HTX was set at 43 V. Nitrogen was used as the collision gas. The nebulizer and sheath gas flow rates were set to 14 and 11 L/min, respectively. The MassHunter qualitative analysis software was used to acquire the data (Agilent Technologies, Inc. Headquarters, CA, USA). HTX was quantified using the transitions for HTX at m/z 303→199 in the multiple reaction monitoring (MRM) mode.
By dissolving precisely weighed HTX and reference compounds in acetonitrile, stock HTX solutions were prepared. By diluting the stock solutions using a mixture of acetonitrile and water (2:8, v/v), a series of working solutions with concentrations between 7.81 and 1000 ng/mL were prepared. All solutions were stored at 4 °C. By spiking the blank plasma (50 µL) with 25 µL of standard working solutions, HTX calibration standards (0.78, 1.56, 3.13, 6.25, 12.5, 25.0, 50, 125, and 250 ng/mL) were prepared. The extraction solvent ethyl acetate (0.5 mL) was added to 75 µL of HTX-spiked plasma. The sample was vortexed for 1 min, followed by ultrasonic vibration for 15 min. Then, centrifugation for 10 min at 15,000 × g was done. The upper organic layer was transferred to a new microtube and dried via evaporation. The dried extract was reconstituted in 150 µL of 50% (v/v) acetonitrile in water. HTX recovery experiments were performed to confirm extraction efficacy. The effectiveness of liquid-liquid extraction was then determined by comparing the peak regions of the extracted HTX-spiked plasma with those of HTX spiked with blank plasma extract.
The plasma concentration-time profiles of HTX were determined by non-compartmental analysis with PKSolver 2.0 software. […] Additionally, the apparent volume of the central or plasma compartment, apparent volume of the peripheral compartment, transfer rate constant from the central compartment to the peripheral compartment, and transfer rate constant from the peripheral to central compartment were calculated using the two-compartment model.

non-infected ICR mice = assay: Acute toxicity test, single intraperitoneal dose, 14-day observation, liver and kidney biochemical parameters; assay type: in vivo
Method: (§1) Acute HTX toxicity was determined in non-infected ICR mice aged 6–8 weeks and weighing 25–35 g using the Organization for Economic Cooperation and Development standard criteria. Fifteen mice were randomly divided into three groups (n = 5): untreated, negative control, and HTX-treated. All mice fasted for three hours prior to the experiment, and only drinking water was available. HTX was dissolved in 2% DMSO in NSS at 50 mg/kg body weight. In the treatment group, the first mouse was intraperitoneally given a single dose of 50 mg/kg body weight HTX, whereas in the negative control group, the first mouse was intraperitoneally given 200 µL of 2% DMSO in NSS. […] All mice were anaesthetized using pentobarbital (60 mg/kg body weight) by intraperitoneal injection. Blood samples were collected via cardiac puncture into heparinized tubes for biochemical analyses. The liver and kidney tissues were collected for histological examination. The mice were subsequently euthanized with an intraperitoneal injection of pentobarbital (200 mg/kg body weight).

[4] = test system: Plasmodium falciparum K1 strain; details: P. falciparum K1 strain (chloroquine-resistant), in vitro; read-out: IC50, antiplasmodial activity; cited from earlier work
[5] = test system: liver and kidney tissues of ICR mice; assay: Histopathological examination of liver and kidney tissues (H&E) in the acute toxicity test; assay type: in vivo; details: 50 mg/kg single intraperitoneal dose
Method: as §1
[…]. In brief, all tissues were fixed in 10% buffered formalin, dehydrated using a gradient series of ethanol solutions, cleaned with xylene, and deposited in a paraffin mold. The paraffin blocks were then sectioned to a thickness of 5 μm using a rotary microtome, transferred to glass slides, and stained with hematoxylin and eosin (H&E) solution. […]

[6] = test system: P. falciparum chloroquine-resistant (FCR3) strain; details: cited from earlier work
[7] = 3 mg/kg intraperitoneal daily D0-D3, read on D4, P. berghei-infected ICR mice
[8] = 1 mg/kg intraperitoneal daily D0-D3, read on D4, P. berghei-infected ICR mice
[9] = 10 mg/kg intraperitoneal daily D0-D3, read on D4, P. berghei-infected ICR mice

C[C@H]1[C@H](OC(=O)CCC(=O)O)O[C@@H]2O[C@@]3(C)CC[C@H]4[C@H](C)CC[C@@H]1[C@@]24OO3 [Artesunate, reference compound]
% parasitemia [1, 7]: 3.84 ± 0.54% | elimination half-life ([2]; in vivo): 0.8 to 1.2 h

CCN(CC)CCCC(C)Nc1ccnc2cc(Cl)ccc12 (stereo not drawn) [Chloroquine, reference compound]
% parasitemia [1, 7]: 3.42 ± 0.35% | % suppression [1, 7]: 92.07 ± 4.21 ^c, d, e % | % suppression ([1]; 3 mg/kg intraperitoneal daily D0-D3, read on D4, P. berghei-infected ICR mice, listed as chloroquine): 92.07%

COc1cc2c(=O)c3c(O)cccc3oc2c(OC)c1OC [HTX, 1-hydroxy-5,6,7-trimethoxyxanthone]
% parasitemia [1, 8]: 21.91 ± 2.25% | % suppression [1, 8]: 34.56% and 34.56 ± 4.91 ^a, b, d, e % | % parasitemia [1, 7]: 17.79 ± 2.31% | % suppression [1, 7]: 46.88% and 46.88 ± 3.96 ^a, b, c, e % | % parasitemia [1, 9]: 8.62 ± 1.21% | % suppression [1, 9]: 74.26% and 74.26 ± 3.32 ^a, b, c, d % | CL/F ([3]; plasma): 0.020 ± 0.002 (mg/kg)/(ng/mL)/h | MRT0−∞ ([3]; plasma): 14.79 h and 14.795 ± 0.515 h | Vz/F ([3]; plasma): 0.405 ± 0.014 (mg/kg)/(ng/mL) | t1/2 (elimination half-life) ([3]; plasma): 13.881 ± 1.231 h | K21 (rate constant, peripheral to central compartment) ([3]; two-compartment model): 0.156 ± 0.002 h⁻¹ | V1 (apparent volume, central or plasma compartment) ([3]; two-compartment model): 1.633 ± 0.003 (mg/kg)/(ng/mL) | V2 (apparent volume, peripheral compartment) ([3]; two-compartment model): 19.808 ± 2.031 (mg/kg)/(ng/mL) | MRT inf ([3]; male, ICR, mouse, plasma, ip, 5 mg/kg, plasma, read-out: MRT0−∞): 14.8 h | half-life ([3]; male, ICR, mouse, plasma, ip, 5 mg/kg, plasma, read-out: t1/2 (elimination half-life) (converted)): 13.9 h | Cmax ([3]; male, mouse, ip, plasma): 94 ± 3.21 ng/mL | Tmax ([3]; male, mouse, ip, plasma): 0.5 ± 0.021 h | AUC(0-inf) ([3]; male, mouse, ip, plasma, non-compartmental): 247 ± 5.33 ng·h/mL | AUC(0-t) ([3]; male, mouse, ip, plasma, non-compartmental, read-out: AUC0 − 48 h): 226 ± 4.74 ng·h/mL | mortality (non-infected ICR mice; 50 mg/kg single intraperitoneal dose, 24 h and following 14 days): No mortality; also recorded: all treated mice were alive; also recorded: did not cause mortality; also recorded: no behavioral changes or mortality | effect on biochemical parameters of the liver and kidney functions (non-infected ICR mice; 50 mg/kg single intraperitoneal dose, versus untreated and negative controls): no significant alterations; also recorded: did not affect the liver and kidney functions | median lethal dose (LD50) (non-infected ICR mice; intraperitoneal, single dose, 14 days): greater than 50 mg/kg body weight | IC50 [4]: 9.57 µM | kidney histology (H&E) [5]: no histological changes; also recorded: normal; also recorded: did not present with lesions | liver histology (H&E) [5]: no histological changes; also recorded: normal hepatocyte histology

CC(C)(N)CNC(=O)C[C@H]1CC[C@]2(CC1)OO[C@]1(O2)C2CC3CC(C2)CC1C3 [arterolane]
elimination half-life ([2]; in vivo): 2 to 4 h

C[C@H]1[C@@H](O)O[C@@H]2O[C@@]3(C)CC[C@H]4[C@H](C)CC[C@@H]1[C@@]24OO3 [dihydroartemisinin]
elimination half-life [2]: 0.9 to 2 h

COc1c(O)cc2oc3cc(O)c(CC=C(C)C)c(O)c3c(=O)c2c1CC=C(C)C [Α-Mangostin]
IC50 [6]: 0.2 µM
